Assay results taken from US20250171438A1 (Agios Pharmaceuticals, Inc., priority 2022, published 2025).

These compounds were tested against T1, human PAH with the R408W mutation (Homo sapiens, UniProt P00439, R408W) (assay: Cell Based Phenylalanine Flux Assay). Conditions: A375 cells expressing human R408W PAH; 24 hrs compound incubation; 13C-Tyrosine by LC-MS; average where tested multiple times; read-out: AC50.
T1 construct: expressed in transfected cells
T1 sequence (P00439 1-452 R408W): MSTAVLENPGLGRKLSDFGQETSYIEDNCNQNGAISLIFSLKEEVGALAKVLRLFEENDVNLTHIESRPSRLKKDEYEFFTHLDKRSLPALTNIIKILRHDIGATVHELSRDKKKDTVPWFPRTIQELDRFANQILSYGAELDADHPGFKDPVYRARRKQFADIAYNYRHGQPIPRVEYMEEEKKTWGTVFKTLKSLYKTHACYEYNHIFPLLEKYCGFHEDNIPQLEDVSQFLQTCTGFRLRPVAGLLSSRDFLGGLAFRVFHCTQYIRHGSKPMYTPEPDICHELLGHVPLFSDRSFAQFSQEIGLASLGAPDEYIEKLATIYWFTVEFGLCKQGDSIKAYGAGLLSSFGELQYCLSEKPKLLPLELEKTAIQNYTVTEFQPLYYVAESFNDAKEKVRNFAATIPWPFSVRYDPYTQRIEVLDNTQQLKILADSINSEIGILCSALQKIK
Compound O=C(CC1CC1)N1CCc2[nH]cnc2[C@H]1c1nc2ccc(Br)cc2[nH]1 [Example 945, (S)-1-(4-(6-bromo-1H-benzo[d]imidazol-2-yl)-6,7-dihydro-1H-imidazo[4,5-c]pyridin-5(4H)-yl)-2-cyclopropylethanone] has an AC50 of under 0.5 µM.
Cc1nc(-c2cnn(C)c2)oc1C(=O)N1CCc2[nH]cnc2[C@H]1c1nc2c(F)cccc2s1 [Example 1378, (S)-(4-(4-fluorobenzo[d]thiazol-2-yl)-6,7-dihydro-1H-imidazo[4,5-c]pyridin-5(4H)-yl)(4-methyl-2-(1-methyl-1H-pyrazol-4-yl)oxazol-5-yl)methanone] gave an AC50 of under 0.5 µM.
Cc1ccc2nc([C@@H]3c4nc[nH]c4CCN3C(=O)c3cncs3)sc2c1 [Example 1303, (S)-(4-(6-methylbenzo[d]thiazol-2-yl)-6,7-dihydro-1H-imidazo[4,5-c]pyridin-5(4H)-yl)(thiazol-5-yl)methanone] gave an AC50 of 0.5 to 1 µM.
CC(C)(O)c1nc(C(F)(F)F)c(C(=O)N2CC3(CC3)c3[nH]cnc3[C@@H]2c2nc3ccccc3s2)o1 [Example 1680, (R)-(4′-(benzo[d]thiazol-2-yl)spiro[cyclopropane-1,7′-imidazo[4,5-c]pyridin]-5′(1′H,4′H,6′H)-yl)(2-(2-hydroxypropan-2-yl)-4-(trifluoromethyl)oxazol-5-yl)methanone] gave an AC50 of 1 to 5 µM.
Cc1nc(C2(O)CC2)oc1C(=O)N1CCc2[nH]cnc2[C@H]1c1nc2c(F)cccc2s1 [Example 1949, (S)-(4-(4-fluorobenzo[d]thiazol-2-yl)-6,7-dihydro-1H-imidazo[4,5-c]pyridin-5(4H)-yl)(2-(1-hydroxycyclopropyl)-4-methyloxazol-5-yl)methanone] showed an AC50 of 0.5 to 1 µM.
In the case of CC(C)(O)c1nc(C(F)F)c(C(=O)N2CCc3[nH]cnc3[C@H]2c2nc3c(F)cccc3s2)o1 [Example 1773, (S)-(4-(difluoromethyl)-2-(2-hydroxypropan-2-yl)oxazol-5-yl)(4-(4-fluorobenzo[d]thiazol-2-yl)-6,7-dihydro-1H-imidazo[4,5-c]pyridin-5(4H)-yl)methanone], the AC50 is reported as under 0.5 µM.
Cc1nc(C(C)(C)O)oc1C(=O)N1CCc2[nH]cnc2[C@H]1c1nc2c(F)cccc2s1 [Example 1471, (S)-(4-(4-fluorobenzo[d]thiazol-2-yl)-6,7-dihydro-1H-imidazo[4,5-c]pyridin-5(4H)-yl)(2-(2-hydroxypropan-2-yl)-4-methyloxazol-5-yl)methanone] gave an AC50 of under 0.5 µM.
Compound Cn1cc(-c2ccc3c(C(=O)N4CCc5[nH]cnc5[C@H]4c4nc5ccccc5s4)cnn3c2)cn1 [Example 1213] has an AC50 of under 0.5 µM.
With O=C(c1nnc(-c2ccccn2)o1)N1CCc2[nH]cnc2[C@@H]1c1nc2cccc(F)c2s1 [Example 1717, (R)-(4-(7-fluorobenzo[d]thiazol-2-yl)-6,7-dihydro-1H-imidazo[4,5-c]pyridin-5(4H)-yl)(5-(pyridin-2-yl)-1,3,4-oxadiazol-2-yl)methanone] the AC50 was 0.5 to 1 µM.
CC(O)c1nc(Br)c(C(=O)N2CCc3[nH]cnc3[C@H]2c2nc3c(F)cccc3s2)o1 (single isomer, unassigned) [Example 2058] showed an AC50 of under 0.5 µM.
O=C(c1oc(C2CC2)nc1C(F)F)N1CCc2[nH]cnc2[C@@H]1c1nc2c(F)cccc2s1 [Example 1572, (R)-(2-cyclopropyl-4-(difluoromethyl)oxazol-5-yl)(4-(4-fluorobenzo[d]thiazol-2-yl)-6,7-dihydro-1H-imidazo[4,5-c]pyridin-5(4H)-yl)methanone] was tested, and the AC50 was 0.5 to 1 µM.
CC(C)(C)c1ncc(C(=O)N2CCc3[nH]cnc3[C@@H]2c2nc3ccccc3s2)o1 [Example 1428, (R)-(4-(benzo[d]thiazol-2-yl)-6,7-dihydro-1H-imidazo[4,5-c]pyridin-5(4H)-yl)(2-(tert-butyl)oxazol-5-yl)methanone] showed an AC50 of 0.5 to 1 µM.
With Cc1nc(-c2ccccc2)c(C(=O)N2CCc3[nH]cnc3[C@H]2c2nc3ccccc3s2)o1 [Example 1520] the AC50 was 0.5 to 1 µM.
CC1(c2nc(C(F)F)c(C(=O)N3CCc4[nH]cnc4[C@H]3c3nc4ccccc4s3)o2)CC1 [Example 1851] gave an AC50 of under 0.5 µM.
O=C(c1cnn2ccccc12)N1CCc2[nH]cnc2[C@@H]1c1nc2ccccc2s1 [Example 1010, (R)-(4-(benzo[d]thiazol-2-yl)-6,7-dihydro-1H-imidazo[4,5-c]pyridin-5(4H)-yl)(pyrazolo[1,5-a]pyridin-3-yl)methanone] showed an AC50 of 1 to 5 µM.
O=C(CC1CCC1)N1CCc2[nH]cnc2[C@H]1c1nc2ccccc2s1 [Example 1307] was tested, and the AC50 was under 0.5 µM.
CC(C)(C)c1ncoc1C(=O)N1CCc2[nH]cnc2[C@H]1c1nc2c(F)cccc2s1 [Example 2181] showed an AC50 of under 0.5 µM.
Cc1ccc2sc([C@H]3c4nc[nH]c4CCN3C(=O)c3cncs3)nc2c1 [Example 1294, (R)-(4-(5-methylbenzo[d]thiazol-2-yl)-6,7-dihydro-1H-imidazo[4,5-c]pyridin-5(4H)-yl)(thiazol-5-yl)methanone] was tested, and the AC50 was 1 to 5 µM.
O=C(N1CCc2[nH]cnc2[C@H]1c1nc2ccccc2s1)C1(CF)CC1 [Example 1255] showed an AC50 of 0.5 to 1 µM.
CC(F)(F)c1ncc(C(=O)N2CCc3[nH]cnc3[C@@H]2c2nc3c(F)cccc3s2)s1 [Example 1514, (R)-(2-(1,1-difluoroethyl)thiazol-5-yl)(4-(4-fluorobenzo[d]thiazol-2-yl)-6,7-dihydro-1H-imidazo[4,5-c]pyridin-5(4H)-yl)methanone] was tested, and the AC50 was 1 to 5 µM.
For O=C(c1oc(-c2ccc(F)cn2)nc1C(F)F)N1CCc2[nH]cnc2[C@@H]1c1nc2ccccc2s1 [Example 1745, (R)-(4-(benzo[d]thiazol-2-yl)-6,7-dihydro-1H-imidazo[4,5-c]pyridin-5(4H)-yl)(4-(difluoromethyl)-2-(5-fluoropyridin-2-yl)oxazol-5-yl)methanone], the AC50 was 0.5 to 1 µM.
CC(C)(C)n1ncc(C(=O)N2CCc3[nH]cnc3[C@@H]2c2nc3c(F)cccc3s2)c1Cl [Example 1932, (R)-(1-(tert-butyl)-5-chloro-1H-pyrazol-4-yl)(4-(4-fluorobenzo[d]thiazol-2-yl)-6,7-dihydro-1H-imidazo[4,5-c]pyridin-5(4H)-yl)methanone] was tested, and the AC50 was 1 to 5 µM.
With O=C(c1cn[nH]c1C(F)F)N1CCc2[nH]cnc2[C@@H]1c1nc2ccccc2s1 [Example 1858, (R)-(4-(benzo[d]thiazol-2-yl)-6,7-dihydro-1H-imidazo[4,5-c]pyridin-5(4H)-yl)(5-(difluoromethyl)-1H-pyrazol-4-yl)methanone] the AC50 was 1 to 5 µM.
O=C(c1cn(CC(F)F)nc1Cl)N1CCc2[nH]cnc2[C@H]1c1nc2c(F)cccc2s1 [Example 1981, (S)-(3-chloro-1-(2,2-difluoroethyl)-1H-pyrazol-4-yl)(4-(4-fluorobenzo[d]thiazol-2-yl)-6,7-dihydro-1H-imidazo[4,5-c]pyridin-5(4H)-yl)methanone] showed an AC50 of under 0.5 µM.
With O=C(c1cnn2c(Br)cccc12)N1CCc2[nH]cnc2[C@H]1c1nc2c(F)cccc2s1 [Example 1239] the AC50 was under 0.5 µM.
With O=C(c1nnc(-c2ccn(C(F)F)n2)o1)N1CCc2[nH]cnc2[C@H]1c1nc2ccccc2s1 [Example 1873] the AC50 was under 0.5 µM.

Same assay, conditions: A375 cells expressing human R408W PAH; 24 hrs with compound; 13C-Tyrosine by LC-MS; average where tested multiple times; read-out: AC50
O=C(C1CC1F)N1CCc2[nH]cnc2C1c1nc2ccccc2s1 (centres unmarked) [listing 1 of 2 here] was tested, and the AC50 was over 5 µM.
O=C(c1cnn2cc(Cl)ccc12)N1CCc2[nH]cnc2C1c1nc2ccc(Cl)cc2[nH]1 (centres unmarked) was tested, and the AC50 was over 5 µM.
For CN(C)Cc1nc(C(=O)N2CCc3[nH]cnc3C2c2nc3ccccc3s2)no1 (centres unmarked), the AC50 was 1 to 5 µM.
For O=C(C1CC1)N1CCc2[nH]cnc2C1c1nc2ccc(F)cc2s1 (centres unmarked), the AC50 was over 5 µM.
For O=C(C1CN(c2ccccn2)C1)N1CCc2[nH]cnc2C1c1nc2ccccc2s1 (centres unmarked), the AC50 was over 5 µM.
With O=C(c1nc(Cl)cs1)N1CCc2[nH]cnc2C1c1nc2c(F)cccc2s1 (centres unmarked) the AC50 was 1 to 5 µM.
For O=C(c1nnc(C2CC(F)(F)C2)o1)N1CCc2[nH]cnc2C1c1nc2ccccc2s1 (centres unmarked), the AC50 was 1 to 5 µM.
O=C(c1ncc(Cl)s1)N1CCc2[nH]cnc2C1c1nc2ccc(F)cc2s1 (centres unmarked) showed an AC50 of 1 to 5 µM.
With COc1ccc2c(C(=O)N3CCc4[nH]cnc4[C@H]3c3nc4ccccc4[nH]3)cnn2c1 [(S)-(4-(1H-benzo[d]imidazol-2-yl)-6,7-dihydro-1H-imidazo[4,5-c]pyridin-5(4H)-yl)(6-methoxypyrazolo[1,5-a]pyridin-3-yl)methanone] the AC50 was 1 to 5 µM.
With Cc1ncc(C(=O)N2CCc3[nH]cnc3[C@H]2c2nc3c(F)cccc3s2)o1 (single isomer, unassigned) the AC50 was 1 to 5 µM.
With COCc1ccc2c(C(=O)N3CC4(CC4)c4[nH]cnc4C3c3nc4ccccc4s3)cnn2c1 (centres unmarked) the AC50 was over 5 µM.
In the case of O=C(c1cnco1)N1CCc2[nH]cnc2C1c1nc2c(F)cccc2s1 (centres unmarked), the AC50 is reported as 1 to 5 µM.
Work on O=C(C1CC1F)N1CCc2[nH]cnc2C1c1nc2ccccc2s1 (centres unmarked) [listing 2 of 2 here] yielded an AC50 of 1 to 5 µM.
With O=C(Cc1nccs1)N1CCc2[nH]cnc2C1c1nc2ccccc2[nH]1 (centres unmarked) the AC50 was 1 to 5 µM.
NC(=O)c1ncoc1C(=O)N1CCc2[nH]cnc2C1c1nc2ccccc2s1 (centres unmarked) gave an AC50 of 1 to 5 µM.
Fc1ccc2sc(CN3CCc4[nH]cnc4C3c3nc4cc(F)ccc4s3)nc2c1 (centres unmarked) gave an AC50 of over 5 µM.
O=C(c1ncc[nH]1)N1CCc2[nH]cnc2C1c1nc2ccccc2[nH]1 (centres unmarked) was tested, and the AC50 was 1 to 5 µM.
Cc1nc(-c2ccccn2)oc1C(=O)N1CC2(CC2)c2[nH]cnc2C1c1nc2ccccc2s1 (centres unmarked) was tested, and the AC50 was over 5 µM.
O=C(c1ncc(Cl)s1)N1CCc2[nH]cnc2C1c1nc2cccc(F)c2s1 (centres unmarked) gave an AC50 of 1 to 5 µM.
CS(=O)(=O)c1ncoc1C(=O)N1CCc2[nH]cnc2C1c1nc2ccccc2s1 (centres unmarked) gave an AC50 of 1 to 5 µM.
O=C(c1nnc(-c2ccccn2)o1)N1CCCc2[nH]cnc2C1c1nc2ccccc2s1 (centres unmarked) showed an AC50 of over 5 µM.
